Converted amounts (≈) assume the structure as drawn.
Tests used:
[1] = Antioxidant capacity by chemiluminescence (Photochem Analytik Jena); details: for μg of sample for 1 μg of Trolox: Trolox equivalent, lower = stronger antioxidant
Experimental: This test is used to determine the antioxidant capacity of the molecules. It is a method that generates free radicals by a photochemical signal. The intensity of the oxidation is 1000 times greater than that obtained under normal conditions.
The detection is carried out by chemiluminescence. It enables the evaluation of hydrosoluble and liposoluble anti-oxidant molecules or extracts.
The results are expressed respectively in equivalent quantity of vitamin C or Trolox (6-hydroxy-2,5,7,8-tetramethylchroman-2-carboxylic acid). The sensitivity is of the order of a nanomole.
The antioxidant activity studied in this test represents the capacity to trap specifically superoxide anions by chemiluminescence.
The quantified results are expressed in Trolox equivalent (standard), i.e. in “μg of product for 1 μg of Trolox”. This signifies that a quantity×of sample is needed to obtain an activity equivalent to the activity detected for 1 μg of standard. It is an anti-oxidant power relative to a reference, which makes it possible to disregard the concentration tested.
The superoxide radical: 02^0− is generated by a photochemical reaction: L+hv (UV)+O2→L*O2→L^0++O2^0−
A part of the superoxide anions is quenched by the anti-oxidants. The remaining free radicals are quantified by chemiluminescence. L^0++O2^0−→N2+AP*^2−→AP^2−+hv (luminescence)

[2] = target: T1, mushroom tyrosinase (Agaricus bisporus, UniProt C7FF04); test: Tyrosinase inhibition test (in vitro acellular depigmenting activity); type: biochemical; details: polyphenol oxidase (PPO) function; reference molecules for the test
T1 construct: purchased Sigma T-3824

[3] = Protection of linoleic acid following a UV stress (Fenton conditions, MDA-TBA assay); set-up: % Protection Linoleic acid under UV/Fenton: concentration or dose not given beside the values; details: UV + H2O2 + iron II
Text: D) Test of Protection of Linoleic Acid Following a UV Stress. Target: Protection of Linoleic Acid Under Fenton Conditions, UV Irradiation Linoleic acid belongs to the family of polyunsaturated fatty acids (PUFA) (AGPI). Sensitive to oxidation, linoleic acid is a favoured target for oxygenated free radicals (OFR) in biological media. When biological membranes are exposed to an oxidative stress, the components the most affected are the phospholipids constituted of PUFA and cholesterol. Their degradation leads to lipidic peroxidation and generally to destructuring. Lipidic peroxidation is a self-catalysing process which generally involves OFR. Lipidic peroxidation is in part responsible for skin ageing. The method employed to evaluate lipid peroxidation is based on the coupling of thiobarbituric acid (TBA) and secondary degradation products leading to coloured compounds detectable by spectrofluorometry. The essential secondary compound of final degradation is malondialdehyde, MDA. MDA is a carcinogenic and mutagenic aldehyde, it acts on proteins and DNA. The sample to be tested is placed in contact with linoleic acid in a weight/weight ratio. The sample undergoes an MED (Minimal Erythemal Dose) irradiation under Fenton conditions, namely in the presence of H202 and iron II in a solar simulator. Following irradiation, the reaction mixture is taken up in methanol and derivatised at 90° C. with TBA. Chromogene, the MDA-TBA complex, representative of the equimolar production of MDA is assayed by fluorimetry (excitation at 525 nm, emission at 549 nm). The results are expressed in fluorescence units, as a function of a MDA-TBA control range then expressed as concentration of the MDA-TBA complex. Then, the percentage of the starting MDA/linoleic acid (LA) ratio is determined. Then the percentage of protection of linoleic acid is determined. The product assay is expressed as weight/weight ratio, in other words in weight percentage with respect to the total quantity of linoleic acid. The maximal MDA level is determined by the condition UV+H202+iron II (F). The percentage of protection of linoleic acid represents: the % ratio of MDA under maximal stress conditions untreated over the % of MDA under stress conditions treated by the product.

[4] = test system: Staphylococcus aureus IP4.83 ATCC6538; test: Minimal inhibitory concentration (MIC), microdilution; type: cell-based
Experimental: (§1) E) Determination of the Minimal Inhibitory Concentration (MIC): This test is used to determine the antibacterial activity of a compound. Tests are carried out with 4 bacterial strains using the principle of microdilution. The MIC are determined by micromethod in liquid medium. The successive dilutions according to the products tested in the culture broth (Trypcase soy) are carried out on 96 well microplates in a final volume of 0.1 ml. The wells are seeded with 0.01 ml of bacterial suspensions titrated at around 10^7 UFC/ml. The microplates are incubated under optimal growth conditions and the MIC is read visually.

[5] = test system: Staphylococcus epidermidis IP6821; test: as above; type: cell-based
Experimental: as §1

[6] = test system: Escherichia coli IP53126 ATCC8739; test: as above; type: cell-based
Experimental: as §1

[7] = test system: P. acnes IP53.117 ATCC6919; test: as above; type: cell-based, Propionibacterium acnes; details: for MIC: Cutibacterium acnes, P. acnes IP53.117 ATCC6919
Experimental: as §1

[8] = target: T1, mushroom tyrosinase; test: Tyrosinase inhibition test (in vitro acellular depigmenting activity); type: biochemical; details: class symbol; assay from 250 to 150 μM; overall tyrosinase activity (MPMOg), L-tyrosine substrate
Text: A) Determination of the Depigmenting Activity in an in vitro Acellular Test: Tyrosinase Inhibition Test)
This test is used to evaluate the depigmenting activity of the molecules tested. Tyrosinase is a limiting enzyme in melanogenesis.
It belongs to the family of oxydoreductases. It has in particular the function: monophenol monooxygenase (MPMO) and polyphenol oxidase (PPO).
It is synthesised at the level of the melanocytes. It is activated during its migration towards melanosome […]. It transforms tyrosine into DOPA then dopaquinone, which leads in fine to a polymerisation, i.e. a production of pigments (see diagram below).
The substrate: L-tyrosine, is transformed into L-DOPA by the monophenol mono oxygenase function which is transformed by the polyphenol oxidase function from tyrosinase into dopaquinone. The latter is going to self-oxidise into dopachrome which is measured by spectrophotometry at 490 nm.
More precisely, it is the overall tyrosinase activity (MPMOg) which is measured since it is the dopachrome in fine that is assayed. Thus the products tested on MPMOg (=measurement of the activity on PPO and MPMO) can cumulate the inhibition of the 2 functions, • inhibiting uniquely the MPMO function stricto sensus (transformation of tyrosine into DOPA) as a complement to the PPO test, • could inhibit PPO uniquely. General Experimental Conditions:

[9] = test system: B16-F10 cells; test: Melanin assay test in B16-F10 cells; type: cell-based, murine; details: Mus musculus, read-out: B16 activity results -% at X μM
Experimental: B) Melanin Assay Test in B16-F10 Cells:
This involves a test of measuring the synthesis of melanin by colorimetric assay on a murine melanoma cell line: the B16-F10 line. This test makes it possible to evaluate the depigmenting power of active ingredients.
The B16-F10 cells are cultured in 96-well plates in DMEM medium supplemented with FCS (foetal calf serum), and incubated for 24 hours at 37° C., 5% CO2. The cells are then stimulated with 0.1 μM α-MSH (to stimulate the synthesis of melanin, the stimulation observed is around 150%) and treated for 72 hours with the active ingredients to be tested. Each concentration of active ingredient is tested at least in triplicate. The total melanin followed by the intracellular melanin dissolved in the lysis buffer are then assayed by absorbance reading at 405 nm. The total proteins are assayed in the lysate and the results are expressed in mg melanin/mg proteins. The percentage of activity is calculated as follows: […]
A negative value indicates an inhibition, whereas a positive value indicates an induction of the synthesis of melanin.
• B16-F10 cell line between P10 and P20 (murine melanocytes) (ATCC, CRL-6475)
Reagents: • DMEM without phenol red (GibcoBRL, 31053-028), 200 mM Glutamax-I Supplement (GibcoBRL, 35050-038), D-PBS (GibcoBRL, 14190-094), Foetal calf serum (Invitrogen, 10270-098), Trypsine-EDTA (GibcoBRL, 25300-054), NaOH (Sigma, S8045-500G), DMSO (Sigma, 471267-1L), Nle, Phe—Melanocyte Stimulating Hormone (Sigma, M-8764), Melanin (Sigma, M-0418), BCA-Copper (Sigma, B9643 and C2284), BSA (Sigma, P0914) C) Test for the Study of the Antioxidant Capacity by Chemiluminescence (Photochem Analytik Jena) Principle: […]

T1 sequence (C7FF04 1-392 limits assumed): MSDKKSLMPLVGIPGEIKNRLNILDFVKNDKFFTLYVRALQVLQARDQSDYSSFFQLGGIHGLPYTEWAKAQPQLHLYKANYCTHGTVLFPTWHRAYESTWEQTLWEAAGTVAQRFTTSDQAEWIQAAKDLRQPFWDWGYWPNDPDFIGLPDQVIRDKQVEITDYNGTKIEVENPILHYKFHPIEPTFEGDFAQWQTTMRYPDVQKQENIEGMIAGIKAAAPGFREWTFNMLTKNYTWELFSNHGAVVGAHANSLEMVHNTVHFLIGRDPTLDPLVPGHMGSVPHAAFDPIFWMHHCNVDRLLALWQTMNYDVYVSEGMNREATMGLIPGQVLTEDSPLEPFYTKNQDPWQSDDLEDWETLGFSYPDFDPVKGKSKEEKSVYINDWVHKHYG

SMILES	Activity (antioxidant, interpretation scale) ([1]; reference products of the interpretation scale)	IC50 [2] [µM]	μg of sample for 1 μg of Trolox [1]	% Protection Linoleic acid under UV/Fenton [3] [%]	MIC [4] [µg/mL]	MIC [5] [µg/mL]	MIC [6] [µg/mL]	antibacterial activity against Propionibacterium acnes (in words) [7]	MIC [7] [µg/mL]	Tyrosinase depigmenting activity result [8]	inhibition at 10 µM ([9]; B16-F10, 72 h) [%]	inhibition at 20 µM ([9]; B16-F10, 72 h) [%]	inhibition at 61 µM ([9]; B16-F10, 61 μM, α-MSH stimulated, 72 hours, negative value = inhibition) [%]
O=C1O[C@H]([C@@H](O)CO)C(O)=C1O [Vitamin C, reference compound]	Very good (0.1 to 3.0)	20 to 40	–	–	–	–	–	–	–	–	–	–	–
CCCCCCCCOc1cc(O)ccc1Sc1ccc(O)cc1O [Example 7, 4-(4-hydroxy-2-(octyloxy)phenylthio)benzene-1,3-diol]	–	–	3.4 μg of sample for 1 μg of Trolox	92	0.78 (≈ 2.15 µM)	0.39 (≈ 1.08 µM)	390 (≈ 1080 µM)	strong antibacterial activity	0.09 (≈ 0.248 µM)	+ + +	50	–	–
CCCCOc1cc(O)ccc1Sc1ccc(O)cc1O [Example 5, 4-(2-butoxy-4-hydroxyphenylthio)benzene-1,3-diol]	–	–	2.8 μg of sample for 1 μg of Trolox	89	6 (≈ 19.6 µM)	3 (≈ 9.79 µM)	–	–	3 (≈ 9.79 µM)	+ + +	–	27	–
CCCCCCCCCCOc1cc(O)ccc1Sc1ccc(O)cc1O [Example 12, 4-(2-(decyloxy)-4-hydroxyphenylthio)benzene-1,3-diol]	–	–	3.4 μg of sample for 1 μg of Trolox	96	0.78 (≈ 2 µM)	0.39 (≈ 0.999 µM)	780 (≈ 2000 µM)	strong antibacterial activity	0.09 (≈ 0.23 µM)	–	–	–	–
Oc1ccc(Sc2ccc(O)cc2O)c(O)c1 [Example 1, 4,4′-thiodibenzene-1,3-diol]	–	–	23 μg of sample for 1 μg of Trolox	90	–	–	–	–	–	+ + +	–	–	50
CCCCCCCCCCCCCCCCOc1cc(O)ccc1Sc1ccc(O)cc1O [Example 13, 4-(2-(hexadecyloxy)-4-hydroxyphenylthio)benzene-1,3-diol]	–	–	5.7 μg of sample for 1 μg of Trolox	95	190 (≈ 400 µM)	156 (≈ 329 µM)	–	–	90 (≈ 190 µM)	–	–	–	–
